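Abbreviation: GI50, concentration required for 50% inhibition of growth. TGI marks complete inhibition of growth.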
What was measured:
Assay in all cases: DTP human tumour cell line panel, 384-well format
SF-268 CNS = test system: SF-268 CNS
LOX IMVI melanoma = test system: LOX IMVI melanoma
SF-539 CNS = test system: SF-539 CNS
RPMI-8226 leukemia = test system: RPMI-8226 leukemia
BT-549 breast = test system: BT-549 breast
SN12C renal = test system: SN12C renal
COLO 205 colon = test system: COLO 205 colon
SK-MEL-5 melanoma = test system: SK-MEL-5 melanoma
PC-3 prostate = test system: PC-3 prostate
SNB-19 CNS = test system: SNB-19 CNS
RXF 393 renal = test system: RXF 393 renal
SW-620 colon = test system: SW-620 colon
HT29 colon = test system: HT29 colon
OVCAR-5 ovarian = test system: OVCAR-5 ovarian
NCI-H460 NSCLC = test system: NCI-H460 NSCLC
A549 NSCLC = test system: A549 NSCLC
UACC-257 melanoma = test system: UACC-257 melanoma
HOP-92 NSCLC = test system: HOP-92 NSCLC
SF-295 CNS = test system: SF-295 CNS
HL-60(TB) leukemia = test system: HL-60(TB) leukemia
CAKI-1 renal = test system: CAKI-1 renal
DU-145 prostate = test system: DU-145 prostate
HOP-62 NSCLC = test system: HOP-62 NSCLC
ACHN renal = test system: ACHN renal
U251 glioblastoma = test system: U251 glioblastoma
T-47D breast = test system: T-47D breast
M14 melanoma = test system: M14 melanoma
NCI-H226 lung = test system: NCI-H226 lung
CCRF-CEM leukemia = test system: CCRF-CEM leukemia
786-0 renal = test system: 786-0 renal
MOLT-4 leukemia = test system: MOLT-4 leukemia
TK-10 renal = test system: TK-10 renal
HCT-15 colon = test system: HCT-15 colon
A498 renal = test system: A498 renal
UACC-62 melanoma = test system: UACC-62 melanoma
K-562 leukemia = test system: K-562 leukemia
IGROV1 ovarian = test system: IGROV1 ovarian
OVCAR-3 ovarian = test system: OVCAR-3 ovarian
MDA-MB-435 melanoma = test system: MDA-MB-435 melanoma
KM12 colon = test system: KM12 colon
UO-31 renal = test system: UO-31 renal
NCI/ADR-RES ovarian = test system: NCI/ADR-RES ovarian
HCC-2998 colon = test system: HCC-2998 colon
OVCAR-8 ovarian = test system: OVCAR-8 ovarian
HCT-116 colon = test system: HCT-116 colon
SK-MEL-28 melanoma = test system: SK-MEL-28 melanoma
NCI-H322M lung = test system: NCI-H322M lung

In the case of CN(CCO)CC[C@H](CSc1ccccc1)Nc1ccc(S(=O)(=O)NC(=O)c2ccc(N3CCC([C@@H](O)c4ccccc4-c4ccc(Cl)cc4)CC3)cc2)cc1S(=O)(=O)C(F)(F)F, the GI50 (SF-268 CNS) is reported as 4.16 µM, the TGI (SF-268 CNS) is reported as 13.9 µM and the GI50 (LOX IMVI melanoma) is reported as 1.96 µM. It also gave a TGI (LOX IMVI melanoma) of 3.62 µM, a GI50 (SF-539 CNS) of 4.11 µM and a TGI (SF-539 CNS) of 14.7 µM. The GI50 (RPMI-8226 leukemia) was < 0.01 µM, the TGI (RPMI-8226 leukemia) was < 0.01 µM and the GI50 (BT-549 breast) was 3.45 µM. For the same compound, the TGI (BT-549 breast) was 10.3 µM, the GI50 (SN12C renal) was 4.04 µM and the TGI (SN12C renal) was 13.9 µM. For the same compound, the GI50 (COLO 205 colon) was 0.807 µM, the TGI (COLO 205 colon) was 2.13 µM and the GI50 (SK-MEL-5 melanoma) was 1.81 µM. It also gave a TGI (SK-MEL-5 melanoma) of 6.32 µM, a GI50 (PC-3 prostate) of 2.43 µM and a TGI (PC-3 prostate) of 5.71 µM. For the same compound, the GI50 (SNB-19 CNS) was 4.85 µM, the TGI (SNB-19 CNS) was 17.2 µM and the GI50 (RXF 393 renal) was < 0.01 µM. It also gave a TGI (RXF 393 renal) of 0.53 µM, a GI50 (SW-620 colon) of 4.48 µM and a TGI (SW-620 colon) of 16.2 µM. It also gave a GI50 (HT29 colon) of 4.35 µM, a TGI (HT29 colon) of 15.5 µM and a GI50 (OVCAR-5 ovarian) of 5 µM. It also gave a TGI (OVCAR-5 ovarian) of 21.3 µM, a GI50 (NCI-H460 NSCLC) of 13.7 µM and a TGI (NCI-H460 NSCLC) of 27.9 µM. The GI50 (A549 NSCLC) was > 100 µM, the TGI (A549 NSCLC) was > 100 µM and the GI50 (UACC-257 melanoma) was 2.29 µM. For the same compound, the TGI (UACC-257 melanoma) was 13.6 µM, the GI50 (HOP-92 NSCLC) was < 0.01 µM and the TGI (HOP-92 NSCLC) was 0.301 µM. The GI50 (SF-295 CNS) was 2.16 µM, the TGI (SF-295 CNS) was 5.23 µM and the GI50 (HL-60(TB) leukemia) was < 0.01 µM. For the same compound, the TGI (HL-60(TB) leukemia) was < 0.01 µM, the GI50 (CAKI-1 renal) was 5.42 µM and the TGI (CAKI-1 renal) was 15.9 µM. It also gave a GI50 (DU-145 prostate) of 18.6 µM, a TGI (DU-145 prostate) of 55.9 µM and a GI50 (HOP-62 NSCLC) of 5.33 µM. For the same compound, the TGI (HOP-62 NSCLC) was 16.7 µM, the GI50 (ACHN renal) was 22.6 µM and the TGI (ACHN renal) was > 100 µM. It also gave a GI50 (U251 glioblastoma) of 2.62 µM, a TGI (U251 glioblastoma) of 6.48 µM and a GI50 (T-47D breast) of 3.88 µM. For the same compound, the TGI (T-47D breast) was 14.6 µM, the GI50 (M14 melanoma) was 2.82 µM and the TGI (M14 melanoma) was 7.47 µM. The GI50 (NCI-H226 lung) was 1.76 µM, the TGI (NCI-H226 lung) was 6.04 µM and the GI50 (CCRF-CEM leukemia) was < 0.01 µM. For the same compound, the TGI (CCRF-CEM leukemia) was 0.0137 µM, the GI50 ([…]-0 renal) was 2.51 µM and the TGI (786-0 renal) was 6.68 µM. The GI50 (MOLT-4 leukemia) was < 0.01 µM, the TGI (MOLT-4 leukemia) was < 0.01 µM and the GI50 (TK-10 renal) was 3.78 µM. For the same compound, the TGI (TK-10 renal) was 15.9 µM, the GI50 (HCT-15 colon) was 64.9 µM and the TGI (HCT-15 colon) was > 100 µM. For the same compound, the GI50 (A498 renal) was 1.73 µM, the TGI (A498 renal) was 6.09 µM and the GI50 (UACC-62 melanoma) was 2.32 µM. For the same compound, the TGI (UACC-62 melanoma) was 5.75 µM, the GI50 (K-562 leukemia) was 3.04 µM and the TGI (K-562 leukemia) was 8.08 µM. It also gave a GI50 (IGROV1 ovarian) of 1.6 µM, a TGI (IGROV1 ovarian) of 3.25 µM and a GI50 (OVCAR-3 ovarian) of 3.54 µM. The TGI (OVCAR-3 ovarian) was 12.2 µM, the GI50 (MDA-MB-435 melanoma) was 3.42 µM and the TGI (MDA-MB-435 melanoma) was 9.42 µM. For the same compound, the GI50 (KM12 colon) was 2.69 µM, the TGI (KM12 colon) was 6.67 µM and the GI50 (UO-31 renal) was > 100 µM. For the same compound, the TGI (UO-31 renal) was > 100 µM, the GI50 (NCI/ADR-RES ovarian) was > 100 µM and the TGI (NCI/ADR-RES ovarian) was > 100 µM. For the same compound, the GI50 (HCC-2998 colon) was < 0.01 µM, the TGI (HCC-2998 colon) was 0.199 µM and the GI50 (OVCAR-8 ovarian) was 11.9 µM. It also gave a TGI (OVCAR-8 ovarian) of 24.4 µM, a GI50 (HCT-116 colon) of 2.97 µM and a TGI (HCT-116 colon) of 9.36 µM. For the same compound, the GI50 (SK-MEL-28 melanoma) was 2.31 µM, the TGI (SK-MEL-28 melanoma) was 4.96 µM and the GI50 (NCI-H322M lung) was 2.72 µM. It also gave a TGI (NCI-H322M lung) of 9.6 µM.

Reference: PubChem BioAssay (NCI)
